Measurements published in patent US7465814B2, “Sulfonate compound and fluorescent probe using the same” (priority 2003, dated 2008).

Legend:
[1] = Fluorescence response to thiophosphonate group (FIG. 8); format: biochemical
Text: Moreover, a capability of the sulfonate compound of the present invention as a fluorescent probe for mercapto compounds other than thiol (a compound in which a —SH group is bonded to a carbon atom) was examined. […]

[2] = Responses to the compounds listed in Table 1; format: biochemical; details: same conditions as Example 1
Method: (§1) Moreover, in other conditions than those of the above-described tests, reactivity of all of the compounds 1a to 1d with H2O2, other various kinds of nucleophilic agents, reducing agents and the like also was tested, respectively. More specifically, fluorescent responses of 1a to 1d with respect to a XO-HPX system, a XO-HPX-SOD system, H2O2, ascorbic acid, 1,4-hydroquinone, propylamine, diethylamine, glucose, esterase, a cytochrome P450 reductase+NADPH system, and a diaphorase+NADH system were measured, respectively. Operational processes thereof will be described below. Firstly, 1a to 1d and the above-described reagents were dissolved in HEPES of 10 mM having a pH of 7.4 so as to prepare solutions, respectively. Next, a 96 wellmicroplate was provided, where any of the solutions of 1a to 1d (25 μM, 170 μL) was poured into each of the wells, and furthermore, 30 μL of a blank solution or 30 μL of the solution of the reagent to be reacted therewith was added thereto. Final concentrations of the solutions in the wells were adjusted so that concentrations of the solutions of 1a to 1d respectively could be 21.3 μM, that of XO could be 13.1 mU/mL, those of HPX, H2O2, ascorbic acid, 1,4-hydroquinone, propylamine, diethylamine, glucose, NADPH and NADH respectively could be 50 μM, that of cytochrome P450 reductase could be 68 mU/mL, that of diaphorase could be 65 mU/mL, and that of esterase could be 0.5 U/mL, respectively. Then, after they reacted in the wells at 37° C. for 10 minutes, fluorescent responses were measured respectively. Fluorescence intensity measurement was conducted by using an ETC-272 Peltier thermostatted single cell holder (trade name) manufactured by JASCO Corporation or a SpectraMax GeminiEM fluorescence plate reader (trade name) manufactured by Molecular Devices Corporation provided with a FP-750 spectrofluorometer (trade name) manufactured by JASCO Corporation, and by setting excitation wavelengths and emission wavelengths so that those of 1a, 1b and 1c respectively could be 485 nm and 515 nm, and those of 1d respectively could be 511 nm and 540 nm.
(§2) The reactivity of each of the compounds 1d, 5a, 6a, 7 and 8a with respect to superoxide and glutathione (GSH) that is a kind of thiol was tested under the same conditions as those of [1-3. Superoxide-selectivity (2)] in Example 1. […] A vertical axis thereof denotes a fluorescence intensity, which is represented in % of control.

[3] = Reactivity with superoxide and glutathione (FIG. 4); format: biochemical; details: same conditions as 1-3 Superoxide-selectivity (2)
Method: as §1, §2

[4] = Fluorescence response to cysteine, quantitativity (FIG. 5); format: biochemical; details: for detection limit of cysteine: probe 200 μL, HEPES pH 7.4, 37° C., 10 minutes; for inclination of calibration curve, cysteine: up to 1000 pmol
Method: (§3) Quantitativity and the like of each of the compounds 6a and 8a with respect to a mercapto compound were evaluated, by using glutathione (GSH) and cysteine that are kinds of thiol. More specifically, an EtOH solution of the compound 6a (10 mM) was prepared, and it further was diluted by 500-fold with a HEPES buffer solution having a pH of 7.4, thereby preparing a probe solution containing the compound 6a. Next, 200 μL of this probe solution and 10 μL of each of solutions of glutathione or cysteine (dissolved in a HEPES buffer solution having a pH of 7.4) with various concentrations were added into each well of a 96-wellmicroplate, and were allowed to stand still at 37° C. for 10 minutes so as to undergo a reaction. Moreover, a probe solution containing 8a was prepared in the same manner as the preparation of the solution of the compound 6a except using 8a instead of 6a, and this probe solution also was allowed to react with a thiol solution in the same manner as the reaction of the probe solution containing 6a. Then, a fluorescence response of each well was measured after the reaction. The measurement of 6a was conducted at λex=383 nm and λem=500 nm, and the measurement of 8a was conducted at λex=483 nm and λem=515 nm. Herein, λex denotes an excitation wavelength, and λem denotes an emission wavelength.
(§4) FIG. 5A is a graph showing the measurement result of 6a, and FIG. 5B is a graph showing the measurement result of 8a.

[5] = Reaction with other nucleophilic agents instead of thiol; format: biochemical; details: same conditions as the thiol test
Method: Quantitativity and the like of each of the compounds 6a and 8a with respect to a mercapto compound were evaluated, by using glutathione (GSH) and cysteine that are kinds of thiol. […] Moreover, a probe solution containing 8a was prepared in the same manner as the preparation of the solution of the compound 6a except using 8a instead of 6a, and this probe solution also was allowed to react with a thiol solution in the same manner as the reaction of the probe solution containing 6a. Then, a fluorescence response of each well was measured after the reaction. The measurement of 6a was conducted at λex=383 nm and λem=500 nm, and the measurement of 8a was conducted at λex=483 nm and λem=515 nm. Herein, λex denotes an excitation wavelength, and λem denotes an emission wavelength.

[6] = Capability as superoxide-detecting fluorescent probe (reactivity with superoxide); format: biochemical; details: tested similarly to the compound 1d
Method: Then, by mainly using the compound 1d as a testing compound, the capability thereof as a superoxide-selective fluorescent probe was evaluated, and moreover, a test in a cell system also was conducted. These tests will be described below.
Thus, it is thought that each compound synthesized from a combination of: a phenolic colorant; and a 2,4-dinitrobenzenesulfonyl group, a 4-trifluoromethyl-2-nitrobenzenesulfonyl group or a 4-nitrobenzenesulfonyl group can be used as a superoxide-detecting fluorescent probe similarly. An example of the usage thereof will be shown in Scheme 8 below. Furthermore, it can be expected that a compound for a fluorescent probe having characteristics that are suitable for its application purpose can be designed and developed freely, by designing the compound of the present invention freely within the limitation defined by the general formula (I) and using the fluorescence mechanism developed by the inventors of the present invention, without being limited to the above-described combinations. Examples of the application purpose of the compound of the present invention are varied, including an application to a faintly coloring technique using superoxide.

[7] = Fluorescence response to glutathione, quantitativity (FIG. 5); format: biochemical; details: for detection limit of GSH: probe 200 μL, HEPES pH 7.4, 37° C., 10 minutes; for inclination of calibration curve, GSH: up to 1000 pmol
Method: as §3, §4

[8] = tested on: thiophosphorylated protein; test: Fluorescence response to thiophosphorylated protein; format: biochemical
[9] = tested on: acetyl cholinesterase (AChE); details: range from 0.1 μU to 0.5 μU, 37° C., 10 minutes, acetyl thiocholine substrate
Method: Firstly, an EtOH solution of the compound 8a (10 mM) was prepared, and it further was diluted by 500-fold with a HEPES buffer solution having a pH of 7.4, thereby preparing a probe solution containing the compound 8a (20 μM). Whereas, a solution (1 mM) was prepared by dissolving commercially available acetyl thiocholine in a HEPES buffer solution having a pH of 7.4. Moreover, acetyl cholinesterase (AChE) solutions (solutions obtained by dissolving acetyl cholinesterase in a HEPES buffer solution having a pH of 7.4) with various concentrations (activity levels) were prepared.
Next, 200 μL of the probe solution, 10 μL of the acetyl thiocholine solution and 10 μL of each of the acetyl cholinesterase (AChE) solutions with various concentrations (activity levels) were added into each well of a 96-wellmicroplate, and underwent an enzyme reaction at 37° C. for 10 minutes. Immediately after the reaction, a fluorescence response of each well was measured at λex (excitation wavelength) of 483 nm and λem (emission wavelength) of 515 nm.

Compound	response to thiol group in thiophosphonate group ([1]; γ-S-ATP and adenosine monothiophosphate (S-AMP))	response with respect to each of the compounds listed in Table 1 [2]	selectivity (specificity), superoxide versus glutathione, FIG. 4 [3]	detection limit of cysteine [4] [pmol]	inclination of calibration curve, cysteine [4] [au/pmol]	fluorescence with other nucleophilic agent instead of thiol [5]	deprotection by superoxide into the corresponding fluorochrome [6]	detection limit of GSH [7] [pmol]	inclination of calibration curve, GSH [7] [au/pmol]	detection limit of γ-S-ATP ([1]; probe 20 μM 200 μL, imidazole buffer pH 7.4, 37° C., 180 minutes) [pmol]	fluorescence responses to thiophosphorylated protein with different introduction degrees of the thiophosphonate group [8]	inclination, AChE activity versus fluorescence response [9] [au/μU]
O=c1cc(C(F)(F)F)c2ccc(OS(=O)(=O)c3ccc([N+](=O)[O-])cc3[N+](=O)[O-])cc2o1 [Compound 6a]	responded to a thiol group in a so-called thiophosphonate group	almost no response	excellent mercapto compound-selectivity	7	0.66	no fluorescence at all	deprotected by superoxide	7	0.37			
O=C(O)c1ccccc1-c1c2ccc(=O)cc-2oc2cc(OS(=O)(=O)c3ccc([N+](=O)[O-])cc3[N+](=O)[O-])ccc12 [Compound 8a]		almost no response	excellent mercapto compound-selectivity	1	4.82	no fluorescence at all		2	4.25	5	fluorescence responses corresponding to the respective introduction degrees were obtained	28.8
